Results reported in patent US8633200B2, “Inhibitors of human immunodeficiency virus replication” (priority 2010, dated 2014).

Test system: recombinant NL-Rluc virus (NL4-3 with Renilla Luciferase gene) in MT-2 cells
Assay: Inhibition of HIV replication (NL-Rluc luciferase reporter virus, MT-2 cells)
Format: cell-based, human immunodeficiency virus (HIV)
Details: NL43, 120 h, read-out: Activity

Row | SMILES | EC50
1 | COc1ccc(-c2c(C(OC(C)(C)C)C(=O)O)c(C)nc3cc(-c4ccccc4)nn23)c(F)c1 (centres unmarked) [Example 63] | > 1 µM
2 | Cc1nc2cc(-c3ccccc3)nn2c(-c2cc3ccccc3o2)c1C(OC(C)(C)C)C(=O)O (centres unmarked) [Example 64] | > 1 µM
3 | Cc1nc2cc(-c3ccccc3)nn2c(-c2ccc3c4c(cccc24)CC3)c1C(OC(C)(C)C)C(=O)O (centres unmarked) [Example 65] | > 1 µM
4 | Cc1nc2cc(-c3ccccc3)nn2c(-c2ccc(C(C)(C)C)cc2)c1C(OC(C)(C)C)C(=O)O (centres unmarked) [Example 66] | > 1 µM
5 | Cc1nc2cc(-c3ccccc3)nn2c(-c2cc3ccccc3s2)c1C(OC(C)(C)C)C(=O)O (centres unmarked) [Example 67] | > 1 µM
6 | Cc1nc2cc(-c3ccccc3)nn2c(-c2csc3ccccc23)c1C(OC(C)(C)C)C(=O)O (centres unmarked) [Example 68] | > 1 µM
7 | Cc1nc2cc(-c3ccccc3)nn2c(-c2cccc3cccnc23)c1C(OC(C)(C)C)C(=O)O (centres unmarked) [Example 69] | > 1 µM
8 | Cc1nc2cc(-c3ccccc3)nn2c(-c2ccc3[nH]ccc3c2)c1C(OC(C)(C)C)C(=O)O (centres unmarked) [Example 70] | > 1 µM
9 | Cc1nc2cc(-c3ccccc3)nn2c(-c2cccc3ncccc23)c1C(OC(C)(C)C)C(=O)O (centres unmarked) [Example 71] | > 1 µM
10 | Cc1nc2cc(-c3ccccc3)nn2c(-c2cccc3[nH]ccc23)c1C(OC(C)(C)C)C(=O)O (centres unmarked) [Example 72] | > 1 µM
11 | Cc1nc2cc(-c3ccccc3)nn2c(-c2cccc3cnccc23)c1C(OC(C)(C)C)C(=O)O (centres unmarked) [Example 73] | > 1 µM
12 | Cc1nc2cc(-c3ccccc3)nn2c(-c2ccc3nccnc3c2)c1C(OC(C)(C)C)C(=O)O (centres unmarked) [Example 74] | > 1 µM
13 | Cc1nc2cc(-c3ccccc3)nn2c(-c2ccc(N(C)C)cc2)c1C(OC(C)(C)C)C(=O)O (centres unmarked) [Example 75] | > 1 µM
14 | Cc1nc2cc(-c3ccccc3)nn2c(-c2ccc3cn[nH]c3c2)c1C(OC(C)(C)C)C(=O)O (centres unmarked) [Example 76] | > 1 µM
15 | Cc1ccc(-c2c(C(OC(C)(C)C)C(=O)O)c(C)nc3cc(-c4ccccc4)nn23)cn1 (centres unmarked) [Example 77] | > 1 µM
16 | Cc1nc2cc(-c3ccccc3)nn2c(-c2cnc3[nH]ccc3c2)c1C(OC(C)(C)C)C(=O)O (centres unmarked) [Example 78] | > 1 µM
17 | Cc1nc2cc(-c3ccccc3)nn2c(-c2ccc3ccncc3c2)c1C(OC(C)(C)C)C(=O)O (centres unmarked) [Example 79] | > 1 µM
18 | Cc1nc2cc(-c3ccccc3)nn2c(-c2cccc3cn[nH]c23)c1C(OC(C)(C)C)C(=O)O (centres unmarked) [Example 80] | > 1 µM
19 | Cc1nc2cc(-c3ccccc3)nn2c(-c2ccc(Cl)cc2Cl)c1C(OC(C)(C)C)C(=O)O (centres unmarked) [Example 81] | > 1 µM
20 | Cc1nc2cc(-c3ccccc3)nn2c(-c2ccc(F)c(Cl)c2)c1C(OC(C)(C)C)C(=O)O (centres unmarked) [Example 82] | > 1 µM
21 | Cc1nc2cc(-c3ccccc3)nn2c(-c2ccc(F)c(F)c2)c1C(OC(C)(C)C)C(=O)O (centres unmarked) [Example 83] | > 1 µM
22 | Cc1nc2cc(-c3ccccc3)nn2c(-c2ccc(Cl)c(Cl)c2)c1C(OC(C)(C)C)C(=O)O (centres unmarked) [Example 84] | > 1 µM
23 | Cc1nc2cc(-c3ccccc3)nn2c(-c2cccc(Cl)c2Cl)c1C(OC(C)(C)C)C(=O)O (centres unmarked) [Example 85] | > 1 µM
24 | Cc1nc2cc(-c3ccccc3)nn2c(-c2ccc(Cl)c(F)c2)c1C(OC(C)(C)C)C(=O)O (centres unmarked) [Example 86] | > 1 µM
25 | Cc1nc2cc(-c3ccccc3)nn2c(-c2ccc(C)c3ccccc23)c1C(OC(C)(C)C)C(=O)O (centres unmarked) [Example 87] | > 1 µM
26 | COc1ccc(-c2c(C(OC(C)(C)C)C(=O)O)c(C)nc3cc(-c4ccccc4)nn23)cc1C (centres unmarked) [Example 88] | > 1 µM
27 | Cc1nc2cc(-c3ccccc3)nn2c(-c2ccc3c(c2)OCCCO3)c1C(OC(C)(C)C)C(=O)O (centres unmarked) [Example 89] | > 1 µM
28 | Cc1nc2cc(-c3ccccc3)nn2c(-c2ccc(F)cc2Cl)c1C(OC(C)(C)C)C(=O)O (centres unmarked) [Example 90] | > 1 µM
29 | Cc1ccc(-c2c(C(OC(C)(C)C)C(=O)O)c(C)nc3cc(-c4ccccc4)nn23)c(C)c1 (centres unmarked) [Example 91] | > 1 µM
